# Test results as given in PubChem BioAssay (NCI).
#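 Cells were grown in 96-well plates and exposed to each compound for 48 hours at five concentrations; endpoints were interpolated linearly between bracketing concentrations, or set to the highest concentration if not reached. At the GI50, growth is halved. At the TGI there is no net growth.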
# How the values were obtained:
# Test in all cases: inhibition of tumour cell growth, NCI panel, 48 h
# 786-0 renal = test system: 786-0 renal
# A498 renal = test system: A498 renal
# A549 NSCLC = test system: A549 NSCLC
# ACHN renal = test system: ACHN renal
# BT-549 breast = test system: BT-549 breast
# CAKI-1 renal = test system: CAKI-1 renal
# CCRF-CEM leukemia = test system: CCRF-CEM leukemia
# COLO 205 colon = test system: COLO 205 colon
# DU-145 prostate = test system: DU-145 prostate
# EKVX NSCLC = test system: EKVX NSCLC
# HCC-2998 colon = test system: HCC-2998 colon
# HCT-116 colon = test system: HCT-116 colon
# HCT-15 colon = test system: HCT-15 colon
# HL-60(TB) leukemia = test system: HL-60(TB) leukemia
# HOP-62 NSCLC = test system: HOP-62 NSCLC
# HOP-92 NSCLC = test system: HOP-92 NSCLC
# HS 578T breast = test system: HS 578T breast
# HT29 colon = test system: HT29 colon
# IGROV1 ovarian = test system: IGROV1 ovarian
# K-562 leukemia = test system: K-562 leukemia
# KM12 colon = test system: KM12 colon
# LOX IMVI melanoma = test system: LOX IMVI melanoma
# M14 melanoma = test system: M14 melanoma
# MALME-3M melanoma = test system: MALME-3M melanoma
# MCF7 breast = test system: MCF7 breast
# MDA-MB-231 breast = test system: MDA-MB-231 breast
# MDA-MB-435 = test system: MDA-MB-435
# MDA-MB-468 breast = test system: MDA-MB-468 breast
# MOLT-4 leukemia = test system: MOLT-4 leukemia
# NCI-H226 lung = test system: NCI-H226 lung
# NCI-H23 lung = test system: NCI-H23 lung
# NCI-H460 lung = test system: NCI-H460 lung
# NCI-H522 lung = test system: NCI-H522 lung
# NCI/ADR-RES ovarian = test system: NCI/ADR-RES ovarian
# OVCAR-3 ovarian = test system: OVCAR-3 ovarian
# OVCAR-4 ovarian = test system: OVCAR-4 ovarian
# OVCAR-5 ovarian = test system: OVCAR-5 ovarian
# OVCAR-8 ovarian = test system: OVCAR-8 ovarian
# PC-3 prostate = test system: PC-3 prostate
# RPMI-8226 leukemia = test system: RPMI-8226 leukemia
# RXF 393 renal = test system: RXF 393 renal
# SF-268 CNS = test system: SF-268 CNS
# SF-295 CNS = test system: SF-295 CNS
# SF-539 CNS = test system: SF-539 CNS
# SK-MEL-2 melanoma = test system: SK-MEL-2 melanoma
# SK-MEL-28 melanoma = test system: SK-MEL-28 melanoma
# SK-MEL-5 melanoma = test system: SK-MEL-5 melanoma
# SK-OV-3 ovarian = test system: SK-OV-3 ovarian
# SN12C renal = test system: SN12C renal
# SNB-19 CNS = test system: SNB-19 CNS
# SNB-75 CNS = test system: SNB-75 CNS
# SR leukemia = test system: SR leukemia
# SW-620 colon = test system: SW-620 colon
# T-47D breast = test system: T-47D breast
# TK-10 renal = test system: TK-10 renal
# U251 CNS = test system: U251 CNS
# UACC-257 melanoma = test system: UACC-257 melanoma
# UACC-62 melanoma = test system: UACC-62 melanoma
# UO-31 renal = test system: UO-31 renal
compound,measurement,setting,value
COC(=O)c1c(C(=O)OC)c2ccc3c4ccccc4ccc3n2c1C(=O)C(C)Br (stereo not drawn),GI50,786-0 renal,21.1 µM
same,TGI,786-0 renal,> 100 µM
same,GI50,A498 renal,88.1 µM
same,TGI,A498 renal,> 100 µM
same,GI50,A549 NSCLC,42.2 µM
same,TGI,A549 NSCLC,> 100 µM
same,GI50,ACHN renal,22.2 µM
same,TGI,ACHN renal,> 100 µM
same,GI50,BT-549 breast,6.18 µM
same,TGI,BT-549 breast,40.2 µM
same,GI50,CAKI-1 renal,21.2 µM
same,TGI,CAKI-1 renal,> 100 µM
same,GI50,CCRF-CEM leukemia,3.92 µM
same,TGI,CCRF-CEM leukemia,> 100 µM
same,GI50,COLO 205 colon,38.8 µM
same,TGI,COLO 205 colon,> 100 µM
same,GI50,DU-145 prostate,> 100 µM
same,TGI,DU-145 prostate,> 100 µM
same,GI50,EKVX NSCLC,42.4 µM
same,TGI,EKVX NSCLC,> 100 µM
same,GI50,HCC-2998 colon,39.9 µM
same,TGI,HCC-2998 colon,> 100 µM
same,GI50,HCT-116 colon,11 µM
same,TGI,HCT-116 colon,> 100 µM
same,GI50,HCT-15 colon,6.17 µM
same,TGI,HCT-15 colon,30.3 µM
same,GI50,HL-60(TB) leukemia,5.39 µM
same,TGI,HL-60(TB) leukemia,> 100 µM
same,GI50,HOP-62 NSCLC,33.1 µM
same,TGI,HOP-62 NSCLC,> 100 µM
same,GI50,HOP-92 NSCLC,15.2 µM
same,TGI,HOP-92 NSCLC,> 100 µM
same,GI50,HS 578T breast,18.8 µM
same,TGI,HS 578T breast,92.7 µM
same,GI50,HT29 colon,20.6 µM
same,TGI,HT29 colon,> 100 µM
same,GI50,IGROV1 ovarian,33.2 µM
same,TGI,IGROV1 ovarian,> 100 µM
same,GI50,K-562 leukemia,6.48 µM
same,TGI,K-562 leukemia,> 100 µM
same,GI50,KM12 colon,> 100 µM
same,TGI,KM12 colon,> 100 µM
same,GI50,LOX IMVI melanoma,4.35 µM
same,TGI,LOX IMVI melanoma,23.7 µM
same,GI50,M14 melanoma,31.3 µM
same,TGI,M14 melanoma,> 100 µM
same,GI50,MALME-3M melanoma,6.1 µM
same,TGI,MALME-3M melanoma,43 µM
same,GI50,MCF7 breast,4.58 µM
same,TGI,MCF7 breast,> 100 µM
same,GI50,MDA-MB-231 breast,4.72 µM
same,TGI,MDA-MB-231 breast,35.8 µM
same,GI50,MDA-MB-435,16.1 µM
same,TGI,MDA-MB-435,> 100 µM
same,GI50,MDA-MB-468 breast,13.2 µM
same,TGI,MDA-MB-468 breast,52.4 µM
same,GI50,MOLT-4 leukemia,3.3 µM
same,TGI,MOLT-4 leukemia,> 100 µM
same,GI50,NCI-H226 lung,25.6 µM
same,TGI,NCI-H226 lung,> 100 µM
same,GI50,NCI-H23 lung,12.9 µM
same,TGI,NCI-H23 lung,> 100 µM
same,GI50,NCI-H460 lung,17.8 µM
same,TGI,NCI-H460 lung,> 100 µM
same,GI50,NCI-H522 lung,3.07 µM
same,TGI,NCI-H522 lung,15.2 µM
same,GI50,NCI/ADR-RES ovarian,17.7 µM
same,TGI,NCI/ADR-RES ovarian,> 100 µM
same,GI50,OVCAR-3 ovarian,16.9 µM
same,TGI,OVCAR-3 ovarian,> 100 µM
same,GI50,OVCAR-4 ovarian,25.6 µM
same,TGI,OVCAR-4 ovarian,> 100 µM
same,GI50,OVCAR-5 ovarian,22.5 µM
same,TGI,OVCAR-5 ovarian,> 100 µM
same,GI50,OVCAR-8 ovarian,14.9 µM
same,TGI,OVCAR-8 ovarian,> 100 µM
same,GI50,PC-3 prostate,17.8 µM
same,TGI,PC-3 prostate,> 100 µM
same,GI50,RPMI-8226 leukemia,7.43 µM
same,TGI,RPMI-8226 leukemia,48.1 µM
same,GI50,RXF 393 renal,2.79 µM
same,TGI,RXF 393 renal,36.7 µM
same,GI50,SF-268 CNS,34.4 µM
same,TGI,SF-268 CNS,> 100 µM
same,GI50,SF-295 CNS,28.3 µM
same,TGI,SF-295 CNS,> 100 µM
same,GI50,SF-539 CNS,10.9 µM
same,TGI,SF-539 CNS,25.6 µM
same,GI50,SK-MEL-2 melanoma,17.9 µM
same,TGI,SK-MEL-2 melanoma,94.1 µM
same,GI50,SK-MEL-28 melanoma,25.7 µM
same,TGI,SK-MEL-28 melanoma,> 100 µM
same,GI50,SK-MEL-5 melanoma,13 µM
same,TGI,SK-MEL-5 melanoma,46.8 µM
same,GI50,SK-OV-3 ovarian,> 100 µM
same,TGI,SK-OV-3 ovarian,> 100 µM
same,GI50,SN12C renal,17.2 µM
same,TGI,SN12C renal,> 100 µM
same,GI50,SNB-19 CNS,51.5 µM
same,TGI,SNB-19 CNS,> 100 µM
same,GI50,SNB-75 CNS,24.7 µM
same,TGI,SNB-75 CNS,> 100 µM
same,GI50,SR leukemia,5.87 µM
same,TGI,SR leukemia,> 100 µM
same,GI50,SW-620 colon,7.26 µM
same,TGI,SW-620 colon,58.3 µM
same,GI50,T-47D breast,11.5 µM
same,TGI,T-47D breast,> 100 µM
same,GI50,TK-10 renal,76.3 µM
same,TGI,TK-10 renal,> 100 µM
same,GI50,U251 CNS,18.3 µM
same,TGI,U251 CNS,> 100 µM
same,GI50,UACC-257 melanoma,44.2 µM
same,TGI,UACC-257 melanoma,> 100 µM
same,GI50,UACC-62 melanoma,11.9 µM
same,TGI,UACC-62 melanoma,> 100 µM
same,GI50,UO-31 renal,24.9 µM
same,TGI,UO-31 renal,> 100 µM
